Data reported in patent US10912815B2, “Inhibitors of mitochondrial fission and methods of use thereof” (The Board of Trustees of the Leland Stanford Junior …, priority 2011, dated 2021).
“Also recorded” adds a separate entry of the source. No end group written: not given here.

Legend:
dynamin-1 = molecular target: T1, dynamin-1 (Homo sapiens, UniProt Q05193); assay: In vitro GTPase assay, recombinant dynamin-1; type: biochemical; conditions: recombinant dynamin-1 25 ng, FIG. 2B
T1 sequence (Q05193 1-864): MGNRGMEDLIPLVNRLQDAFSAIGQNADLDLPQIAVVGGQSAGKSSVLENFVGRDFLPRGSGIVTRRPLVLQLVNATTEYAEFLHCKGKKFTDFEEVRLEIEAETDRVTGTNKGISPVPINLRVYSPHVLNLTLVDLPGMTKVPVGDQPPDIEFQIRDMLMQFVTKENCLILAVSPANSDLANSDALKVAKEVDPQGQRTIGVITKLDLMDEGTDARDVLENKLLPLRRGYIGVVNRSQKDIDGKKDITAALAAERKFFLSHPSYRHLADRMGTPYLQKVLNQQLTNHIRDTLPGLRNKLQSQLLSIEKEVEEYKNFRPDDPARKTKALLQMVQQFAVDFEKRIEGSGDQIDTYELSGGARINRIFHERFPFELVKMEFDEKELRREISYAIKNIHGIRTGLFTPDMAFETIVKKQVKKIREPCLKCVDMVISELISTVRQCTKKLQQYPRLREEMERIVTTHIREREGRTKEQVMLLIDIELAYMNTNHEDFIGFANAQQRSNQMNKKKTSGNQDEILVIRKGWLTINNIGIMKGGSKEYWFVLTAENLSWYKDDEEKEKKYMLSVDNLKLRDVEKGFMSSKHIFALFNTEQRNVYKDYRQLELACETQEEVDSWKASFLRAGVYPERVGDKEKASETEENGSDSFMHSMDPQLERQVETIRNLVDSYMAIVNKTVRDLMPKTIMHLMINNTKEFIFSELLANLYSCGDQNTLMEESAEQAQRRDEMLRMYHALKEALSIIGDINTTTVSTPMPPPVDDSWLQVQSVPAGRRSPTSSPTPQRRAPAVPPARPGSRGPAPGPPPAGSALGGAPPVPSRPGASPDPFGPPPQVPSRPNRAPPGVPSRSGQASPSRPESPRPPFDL
Procedure: First, mitochondrial fission inhibitor constructs were tested to determine what, if any, effects each peptide had on enzyme (GTPase) activity. Recombinant protein Drp1, Mfn1, OPA1 or dynamin-1 (25 ng) was incubated with the indicated modulator peptides for 30 min. GTPase activity was assayed in vitro using a GTPase assay kit (Innova Biosciences, Littleton, USA, or Novus Biologicals, Littleton, Colo.) according to manufacturer's instructions.

[1] = tested on: isolated mouse liver mitochondria with Drp1 recombinant protein; assay: Membrane potential of isolated mouse liver mitochondria incubated with Drp1 (TMRM); type: biochemical; conditions: P110 1 μM, NAC 2.5 mM, FIG. 6D bottom
Procedure: (§1) Mitochondrial membrane potential was also determined using TMRM (tetramethylrhodamine methylester). Fifty μg of mitochondria were incubated with recombinant Drp1 (50 ng) followed by incubation with TMRM (0.5 μM) in the presence or absence of P110 (1 μM) or NAC (2.5 mM). Fluoresence detection was performed using black 96-well plates in a fluorescence microplate reader at 560 nm excitation and 690 nm emission and potential was assessed by quenching of the fluorescent signal. The data are presented as mean±S.E. of percentage relative to control mitochondria from three independent experiments (FIG. 6B, #, p<0.05 vs. control cells; *, p<0.05; **, P<0.01 vs. MPP+- or CCCP-treated cells). Isolated mouse liver mitochondria (50 μg) were incubated with Drp1 recombinant protein (50 ng) in the presence or absence of P110 (1 μM). A kinetic change of mitochondrial superoxide production was determined by using MITOSOX™ (red mitochondrial superoxide indicator). The data are presented as mean±S.E. of percentage relative to the value at basal level from three independent experiments (FIG. 6C, #, p<0.05 vs. control mitochondria; *, p<0.05 vs. mitochondria with the addition of Drp1). Mitochondrial membrane potential of isolated mouse liver mitochondria was determined by TMRM, as described above, in the indicated groups. NAC (2.5 mM) was used as a positive control (FIG. 6D). Protein levels of cytochrome c in the mitochondria were determined by western blot analysis with anti-cytochrome c antibodies in the indicated groups (insert, FIG. 6D). Total ROS production was determined by staining SH-SY5Y cells with CM2HDCFA (1 μM […] at 37° C.) in the indicated groups. The data are presented as mean±S.E. of percentage relative to control group from three independent experiments (FIG. 6E, *, p<0.05 vs. either MPP+ or CCCP treated-group; #, p<0.05 vs. control group).
The mitochondrial membrane potential of isolated mouse liver mitochondria was then measured in the presence or absence of P110.

[2] = tested on: isolated mouse liver mitochondria with Drp1 recombinant protein; assay: Cytochrome c levels in isolated mouse liver mitochondria incubated with Drp1; type: biochemical; conditions: 8 min of Drp1 incubation, FIG. 6D top
Procedure: as §1, with “The data are presented as mean±S.E. of percentage relative to the value at basal level from three independent experiments (FIG. 6C, #, p<0.05 vs. control mitochondria; *, p<0.05 vs. mitochondria with the addition of Drp1).” left out, “NAC (2.5 mM) was used as a positive control (FIG. 6D).” left out, “The data are presented as mean±S.E. of percentage relative to control group from three independent experiments (FIG. 6E, *, p<0.05 vs. either MPP+ or CCCP treated-group; #, p<0.05 vs. control group).” left out

Drp1/Fis1 interaction = Drp1/Fis1 interaction (Homo sapiens, UniProt O00429); assay: Drp1-Fis1 interaction in cultured SH-SY5Y neuronal cells (crosslink, immunoprecipitation); type: cell-based; parameters: endogenous in cells; host or cells: SH-SY5Y; conditions: peptides 1 μM, FIG. 2E
Drp1/Fis1 interaction, sequence (O00429 whole entry): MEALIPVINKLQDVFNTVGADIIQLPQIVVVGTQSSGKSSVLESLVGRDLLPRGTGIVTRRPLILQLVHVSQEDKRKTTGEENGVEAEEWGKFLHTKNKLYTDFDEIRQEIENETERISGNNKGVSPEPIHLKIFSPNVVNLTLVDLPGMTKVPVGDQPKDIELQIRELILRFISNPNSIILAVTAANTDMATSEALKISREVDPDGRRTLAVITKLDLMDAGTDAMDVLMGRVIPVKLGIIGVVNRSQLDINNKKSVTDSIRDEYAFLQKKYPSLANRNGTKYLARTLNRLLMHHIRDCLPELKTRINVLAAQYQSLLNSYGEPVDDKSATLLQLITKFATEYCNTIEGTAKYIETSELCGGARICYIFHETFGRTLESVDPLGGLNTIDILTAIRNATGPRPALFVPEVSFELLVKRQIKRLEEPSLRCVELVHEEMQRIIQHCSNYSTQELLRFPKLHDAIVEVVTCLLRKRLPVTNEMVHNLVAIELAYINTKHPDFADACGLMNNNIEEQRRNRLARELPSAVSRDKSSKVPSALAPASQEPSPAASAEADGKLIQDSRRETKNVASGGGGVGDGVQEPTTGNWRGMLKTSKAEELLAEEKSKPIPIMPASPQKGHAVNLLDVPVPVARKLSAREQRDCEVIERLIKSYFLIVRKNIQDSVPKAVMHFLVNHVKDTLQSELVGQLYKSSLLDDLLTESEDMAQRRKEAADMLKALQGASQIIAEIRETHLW
Procedure: SH-SY5Y cells were treated with Drp1 peptides P110, P109, P112 or TAT47-57 only (1 μM). Because the interaction between Drp1 and Fis1 is transient and dynamic, cells were treated with the crosslinker, DSP, (0.75 mM for 30 min), as described in a previous study (Yoon et al., 2003, Mol Cell Biol 23:5409-5420). The cells were lysed in total cell lystes (50 mM Tris-HCl, pH 7.5, containing 150 mM NaCl, 1% Triton X-100, and protease inhibitor). Immunoprecipitates were analyzed by SDS-PAGE and immunoblotting with antibodies to Drp1, VDAC, and Fis1. VDAC was used as a loading control

[3] = tested on: mitochondrial electron transport chain (complexes I-V); assay: Mitochondrial complex I-V assembly in SH-SY5Y cells (western blot); type: cell-based, human; conditions: SH-SY5Y treated with MPP+, FIG. 8
Procedure: The oxidative phosphorylation system in the mitochondria is responsible for generating ATP and consists of five major membrane protein complexes, the mitochondrial complexes I-V. MPP+ is a specific mitochondrial complex I inhibitor. P110 was tested for potential effects on MPP+-induced defects in mitochondrial complexes. […] The lower panel is a histogram in which the quantitative data generated from the western blot are expressed as mean±S.E. of 3 independent experiments.

SH-SY5Y cells = assay: Apoptosis of SH-SY5Y cells by annexin V staining; type: cell-based, human; conditions: 8 hours after MPP+ exposure, FIG. 9B
Procedure: Apoptosis was determined by annexin V staining 8 hours after MPP+ exposure. The number of apoptotic cells was expressed as mean±S.E. of percentage relative to total number of cells.

Sequence: RRRQRRKKRGYGGDLLPRGS (RRRQRRKKRGYGGDLLPRGS-NH2) [P110, TAT47-57 carrier, GG linker, Drp1 region 110 (GTPase domain) peptide DLLPRGS; C-terminus C(O)-NH2]
- effect on GTPase activity of dynamin-1 (dynamin-1): no effects
- mitochondrial membrane potential (MMP) of isolated mitochondria after Drp1 addition [1]: improved the MMP
- cytochrome c release from the mitochondria [2]: inhibited cytochrome c release
- Drp1-Fis1 interaction in cultured SH-SY5Y neuronal cells (Drp1/Fis1 interaction): inhibited interaction of Drp1 and Fis1; also recorded: Inhibition
- MPP+-induced reduction of NDUFB8 (complex I) and MTCOI (complex IV) [3]: abolished the reduction of these two proteins
- assembly of the mitochondrial electron transport chain (ETC) [3]: improved the assembly
- number of apoptotic cells (annexin V) (SH-SY5Y cells): greatly reduced
